Activity calls are given as the source filed them. No cut-off for these calls is given here.
Experiments:
[1] = molecular target: AMP-activated protein kinase (AMPK) alpha-1/beta-1/gamma-1 (Homo sapiens) (UniProt P54619+Q9Y478+Q13131); assay: Activation of AMPK alpha1/AMPKbeta1/AMPKgamma1 (unknown origin) using SAMS peptide as substrate assessed as relative enzyme activity at 10 uM incubated for 20 mins in presence of [gamma-32P]ATP by scintillation counter analysis; type: protein-complex assay; settings: filed as activator
Chain of AMP-activated protein kinase (AMPK) alpha-1/beta-1/gamma-1 (Homo sapiens) (P54619 whole entry): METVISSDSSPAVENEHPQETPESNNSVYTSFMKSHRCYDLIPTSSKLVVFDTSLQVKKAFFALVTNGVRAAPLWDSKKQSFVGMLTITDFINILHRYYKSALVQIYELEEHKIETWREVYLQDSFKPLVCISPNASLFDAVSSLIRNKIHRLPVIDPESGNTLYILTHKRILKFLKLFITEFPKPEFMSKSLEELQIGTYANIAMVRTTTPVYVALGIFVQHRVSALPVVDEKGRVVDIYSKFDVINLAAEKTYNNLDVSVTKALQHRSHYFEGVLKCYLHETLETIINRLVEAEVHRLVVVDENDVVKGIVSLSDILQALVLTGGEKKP
Chain of AMP-activated protein kinase (AMPK) alpha-1/beta-1/gamma-1 (Homo sapiens) (Q13131 whole entry partner): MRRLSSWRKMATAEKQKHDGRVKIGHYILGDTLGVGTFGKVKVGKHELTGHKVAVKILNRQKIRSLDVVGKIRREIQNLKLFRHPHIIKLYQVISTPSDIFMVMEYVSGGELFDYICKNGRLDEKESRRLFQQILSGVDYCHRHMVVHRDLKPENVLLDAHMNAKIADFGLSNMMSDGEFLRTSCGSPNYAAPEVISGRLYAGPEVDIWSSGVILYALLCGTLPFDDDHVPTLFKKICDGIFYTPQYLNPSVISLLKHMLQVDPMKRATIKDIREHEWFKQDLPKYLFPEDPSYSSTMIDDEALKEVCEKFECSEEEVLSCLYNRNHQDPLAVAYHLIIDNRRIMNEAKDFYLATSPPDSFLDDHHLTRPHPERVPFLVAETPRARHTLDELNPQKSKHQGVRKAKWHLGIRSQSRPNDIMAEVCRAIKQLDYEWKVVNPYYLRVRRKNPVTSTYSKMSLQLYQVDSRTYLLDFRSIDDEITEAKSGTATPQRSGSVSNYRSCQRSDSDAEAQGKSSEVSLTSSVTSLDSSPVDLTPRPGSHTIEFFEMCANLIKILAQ
Chain of AMP-activated protein kinase (AMPK) alpha-1/beta-1/gamma-1 (Homo sapiens) (Q9Y478 2-270 partner limits assumed): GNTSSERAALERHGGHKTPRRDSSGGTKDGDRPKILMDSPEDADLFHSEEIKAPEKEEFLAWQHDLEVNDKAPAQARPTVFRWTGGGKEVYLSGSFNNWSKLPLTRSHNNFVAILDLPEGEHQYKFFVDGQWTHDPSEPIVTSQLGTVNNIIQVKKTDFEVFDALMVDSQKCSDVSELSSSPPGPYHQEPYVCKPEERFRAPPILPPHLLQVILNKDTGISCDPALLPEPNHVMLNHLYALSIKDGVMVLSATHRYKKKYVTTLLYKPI

[2] = molecular target: AMP-activated protein kinase, AMPK; assay: Binding affinity to recombinant AMPK (unknown origin)-immobilized in CM5 sensor chip assessed as dissociation constant by SPR analysis; type: protein-complex assay, Homo sapiens
Syrian golden hamster [3] = assay: Lipid lowering effect on high-fat diet-fed golden hamster assessed as decrease in serum LDL-C level at 6 mg/kg, po qd administered via gavage measured after 4 weeks relative to control; type: functional, Mesocricetus auratus; parameters: scale not given: the % may be the effect or the level left
Syrian golden hamster [4] = assay: Lipid lowering effect on high-fat diet-fed golden hamster assessed as decrease in serum TC level at 6 mg/kg, po qd administered via gavage measured after 4 weeks relative to control; type: functional, Mesocricetus auratus; parameters: scale not given: the % may be the effect or the level left
Syrian golden hamster [5] = assay: Lipid lowering effect on high-fat diet-fed golden hamster assessed as decrease in serum TC level administered orally once daily via gavage measured after 4 weeks; type: functional, organism-based; settings: Mesocricetus auratus, dose 50-200 mg/kg, route po
Syrian golden hamster [6] = assay: Effect on food uptake in high-fat diet-fed golden hamster at 50 to 200 mg/kg, po qd administered via gavage measured after 4 weeks; type: functional, organism-based; settings: Mesocricetus auratus, dose 50-200 mg/kg
Syrian golden hamster [7] = assay: Lipid lowering effect on high-fat diet-fed golden hamster assessed as decrease in TC level in liver at 100 to 200 mg/kg, po qd administered via gavage measured after 4 weeks; type: functional, organism-based; settings: Mesocricetus auratus, dose 100-200 mg/kg
Syrian golden hamster [8] = assay: Effect on liver weight in high-fat diet-fed golden hamster at 50 to 200 mg/kg, po qd administered via gavage measured after 4 weeks; type: functional, organism-based; settings: Mesocricetus auratus, dose 50-200 mg/kg
Syrian golden hamster [9] = assay: Effect on adipose tissue weight in high-fat diet-fed golden hamster at 50 to 200 mg/kg, po qd administered via gavage measured after 4 weeks; type: functional, organism-based; settings: Mesocricetus auratus, dose 50-200 mg/kg
Syrian golden hamster [10] = assay: Lipid lowering effect on high-fat diet-fed golden hamster harboring LDLR-/- assessed as decrease in serum LDL-C level at 200 mg/kg, po qd administered via gavage measured after 8 weeks relative to control; type: functional, Mesocricetus auratus; parameters: scale not given: the % may be the effect or the level left
Syrian golden hamster [11] = assay: Effect on serum TG level in high-fat diet-fed golden hamster harboring LDLR-/- at 50 to 200 mg/kg, po qd administered via gavage measured after 8 weeks; type: functional, organism-based; settings: Mesocricetus auratus, dose 50-200 mg/kg
Rhesus monkey [12] = assay: Lipid lowering effect in Rhesus monkey assessed as decrease in serum LDL-C level at 35 mg/kg, NG qd measured after 7 days; type: functional, organism-based; settings: Macaca mulatta, time 7.0 day
Rhesus monkey [13] = assay: Lipid lowering effect in Rhesus monkey assessed as decrease in serum LDL-C level at 35 mg/kg, NG qd measured after 21 days relative to control; type: functional, Macaca mulatta; parameters: scale not given: the % may be the effect or the level left; settings: time 21 day
Erythrocyte = assay: In vivo induction of AMPK phosphorylation in erythrocytes of human at 2000 mg measured after 5 to 12 hrs by ELISA; type: functional, organism-based; settings: time 5-12 hrs
Homo sapiens = species on record: Homo sapiens; assay: Downregulation of serum LDL-C level in human at 2000 mg bid for 7 days; type: functional; settings: time 7.0 day
Mus musculus [14] = assay: Downregulation of Aacas mRNA level in liver of high-fat diet-fed C57BL/6 mouse model at 200 mg/kg, po for 4 weeks by GO analysis; type: functional, organism-based
Mus musculus [15] = assay: Downregulation of Pcsk9 mRNA level in liver of high-fat diet-fed C57BL/6 mouse model at 200 mg/kg, po for 4 weeks by GO analysis; type: functional, organism-based
Mus musculus [16] = assay: Downregulation of Dnajb9 mRNA level in liver of high-fat diet-fed C57BL/6 mouse model at 200 mg/kg, po for 4 weeks by GO analysis; type: functional, organism-based
Mus musculus [17] = assay: Downregulation of Sdf2l1 mRNA level in liver of high-fat diet-fed C57BL/6 mouse model at 200 mg/kg, po for 4 weeks by GO analysis; type: functional, organism-based
Mus musculus [18] = assay: Downregulation of Ctgf mRNA level in liver of high-fat diet-fed C57BL/6 mouse model at 200 mg/kg, po for 4 weeks by GO analysis; type: functional, organism-based
Mus musculus [19] = assay: Upregulation of Gadd45a mRNA level in liver of high-fat diet-fed C57BL/6 mouse model at 200 mg/kg, po for 4 weeks by GO analysis; type: functional, organism-based
Mus musculus [20] = assay: Effect on Dnajb9 mRNA level in liver of diet-induced obese C57BL/6 mouse model harboring AMPKalpha LS-/- at 200 mg/kg, po for 4 weeks by GO analysis; type: functional, organism-based
Mus musculus [21] = assay: Effect on Ptafr mRNA level in liver of diet-induced obese C57BL/6 mouse model harboring AMPKalpha LS-/- at 200 mg/kg, po for 4 weeks by GO analysis; type: functional, organism-based
Mus musculus [22] = assay: Effect on Ccl2 mRNA level in liver of diet-induced obese C57BL/6 mouse model harboring AMPKalpha LS-/- at 200 mg/kg, po for 4 weeks by GO analysis; type: functional, organism-based
Mus musculus [23] = assay: Effect on Dhcr7 mRNA level in liver of diet-induced obese C57BL/6 mouse model harboring AMPKalpha LS-/- at 200 mg/kg, po for 4 weeks by GO analysis; type: functional, organism-based
Mus musculus [24] = assay: Effect on Aacas mRNA level in liver of diet-induced obese C57BL/6 mouse model harboring AMPKalpha LS-/- at 200 mg/kg, po for 4 weeks by GO analysis; type: functional, organism-based
[25] = Half life in female Rhesus monkey at 70 mg/kg, po or 7 mg/kg, iv measured for 36 hrs by LC-tandem MS analysis; type: ADME, organism-based, Macaca mulatta; settings: in vivo
[26] = Cmax in male Rhesus monkey at 70 mg/kg, po or 7 mg/kg, iv measured for 36 hrs by LC-tandem MS analysis; type: ADME, organism-based, Macaca mulatta; settings: in vivo
[27] = Tmax in male Rhesus monkey at 70 mg/kg, po or 7 mg/kg, iv measured for 36 hrs by LC-tandem MS analysis; type: ADME, organism-based, Macaca mulatta; settings: in vivo
[28] = Half life in male Rhesus monkey at 70 mg/kg, po or 7 mg/kg, iv measured for 36 hrs by LC-tandem MS analysis; type: ADME, organism-based, Macaca mulatta; settings: in vivo
[29] = Oral bioavailability in male Rhesus monkey at 70 mg/kg measured for 36 hrs by LC-tandem MS analysis; type: ADME, organism-based, Macaca mulatta; settings: in vivo
[30] = Apparent permeability across apical to basal side in human Caco-2 cells at 21 uM incubated for 2 hrs by LC-MS/MS analysis; type: ADME, cell-based
[31] = Stability in human liver microsomes assessed as drug metabolism at 1 uM measured after 5 mins in presence of NADPH by LC-MS/MS analysis; type: ADME, Microsome; settings: read-out: Drug metabolism
[32] = Stability in human liver microsomes assessed as […] at 1 uM measured for 60 mins in presence of NADPH by LC-MS/MS analysis; type: ADME, Microsome; settings: read-out: QH
[33] = Acute toxicity in golden hamster assessed as animal survival at 20 g/Kg, po measured for 14 days; type: organism-based, Mesocricetus auratus; settings: in vivo, 20000 mg/kg, 336 h, time 14 day
[34] = Acute toxicity in golden hamster administered orally measured for 14 days; parameters: species or system Mesocricetus auratus; settings: in vivo, route po, time 14 day
[35] = Acute toxicity in golden hamster assessed as intense toxic response at 20 g/Kg, po measured for 14 days; type: organism-based, Mesocricetus auratus; settings: in vivo, 20000 mg/kg, 336 h, time 14 day

CC(=O)OC[C@H]1O[C@@H](n2cnc3c(Nc4cccc(O)c4)ncnc32)[C@H](OC(C)=O)[C@@H]1OC(C)=O
Activity [1]: 2.31
Kd [2]: 17.9 µM
Activity (Syrian golden hamster [3]): 27.5%
Activity (Syrian golden hamster [4]): 24.8%
Activity (Syrian golden hamster [5]): Dose-Dependent Effect
Activity (Syrian golden hamster [6]): inactive
Activity (Syrian golden hamster [7]): Active
Activity (Syrian golden hamster [8]): inactive
Activity (Syrian golden hamster [9]): inactive
Activity (Syrian golden hamster [10]): 43.1%
Activity (Syrian golden hamster [11]): inactive
Activity (Rhesus monkey [12]): Active
Activity (Rhesus monkey [13]): 23.69%
Activity (Erythrocyte): Active
Activity (Homo sapiens): Active
Activity (Mus musculus [14]): Active
Activity (Mus musculus [15]): Active
Activity (Mus musculus [16]): Active
Activity (Mus musculus [17]): Active
Activity (Mus musculus [18]): Active
Activity (Mus musculus [19]): Active
Activity (Mus musculus [20]): inactive
Activity (Mus musculus [21]): inactive
Activity (Mus musculus [22]): inactive
Activity (Mus musculus [23]): inactive
Activity (Mus musculus [24]): inactive
half-life [25]: 4.15 h
Cmax [26]: 0.0204 µg/mL
Tmax [27]: 1.5 h
half-life [28]: 5.4 h
bioavailability [29]: 3.04%
Papp A→B at 2 h, 21 µM [30]: 80 nm/s
metabolised at 5 min, 1 µM [31]: > 80%
hepatic extraction ratio at 1 h, 1 µM [32]: > 0.7
Activity [33]: Non-Toxic
LD50 at 336 h [34]: > 20000 mg/kg
Activity [35]: Non-Toxic
